Test results: ChEMBL document CHEMBL3885861, “Open TG-GATES”

Species on record: Rattus norvegicus
Experiment: Open TG-GATES - Regimen: Daily Repeat
Assay type: toxicity, organism-based, Sprague-Dawley
Design: regimen Daily Repeat, gender Male, age 6 weeks
Settings: in vivo, iv, 2 mg/kg, […], route intravenous injection, dose level Low; for KIDNEY_L / KIDNEY_R / KIDNEY_TOTAL: tissue Kidney; for LIVER: tissue Liver; for A/G / ALP / ALT / AST / BUN / CRE / Ca / Cl / DBIL / GLC / IP / K / LDH / Na / PL / RALB / TBIL / TC / TG / TP / gamma-GTP: tissue Plasma

NCCBr [BROMOETHANAMINE] was tested, and the Lym (tissue Blood, time 28 day) was 85.4%, the MCH (tissue Blood, time 28 day) was 20.4 pg and the MCHC (tissue Blood, time 28 day) was 37.1%. The MCV (tissue Blood, time 28 day) was 54.9 fL, the Mono (tissue Blood, time 28 day) was 1.4% and the Neu (tissue Blood, time 28 day) was 10.6%. It also gave a PT (tissue Blood, time 28 day) of 16.4 s, a Plat (tissue Blood, time 28 day) of 110.2 x10_4/uL and an RBC (tissue Blood, time 28 day) of 772.8 x10_4/ul. For the same compound, the Ret (tissue Blood, time 28 day) was 1.9%, the WBC (tissue Blood, time 28 day) was 107.8 x10_2/uL and the KIDNEY_L (time 7 day) was 1.1 g. The KIDNEY_R (time 7 day) was 1.1 g, the KIDNEY_TOTAL (time 7 day) was 2.2 g and the KIDNEY_L (time 14 day) was 1.2 g. For the same compound, the KIDNEY_R (time 14 day) was 1.2 g, the KIDNEY_TOTAL (time 14 day) was 2.4 g and the KIDNEY_L (time 28 day) was 1.4 g. It also gave a KIDNEY_R (time 28 day) of 1.4 g, a KIDNEY_TOTAL (time 28 day) of 2.8 g and an LIVER (time 7 day) of 11.6 g. The LIVER (time 14 day) was 13.5 g, the LIVER (time 28 day) was 15 g and the A/G (time 7 day) was 1.2. For the same compound, the ALP (time 7 day) was 1420.8 IU/L, the ALT (time 7 day) was 36.2 IU/L and the AST (time 7 day) was 64 IU/L. It also gave a BUN (time 7 day) of 16.2 mg/dL, a CRE (time 7 day) of 0.2 mg/dL and a Ca (time 7 day) of 10.7 mg/dL. It also gave a Cl (time 7 day) of 105.8 meq/L, a DBIL (time 7 day) of 0 mg/dL and a GLC (time 7 day) of 181 mg/dL. It also gave an IP (time 7 day) of 7 mg/dL, a K (time 7 day) of 4.6 meq/L and an LDH (time 7 day) of 158.8 IU/L. It also gave a Na (time 7 day) of 140.8 meq/L, a PL (time 7 day) of 141 mg/dL and an RALB (time 7 day) of 2.9 g/dL. The TBIL (time 7 day) was 0.01 mg/dL, the TC (time 7 day) was 75.2 mg/dL and the TG (time 7 day) was 93 mg/dL. For the same compound, the TP (time 7 day) was 5.4 g/dL, the gamma-GTP (time 7 day) was 2 IU/L and the A/G (time 14 day) was 1.1. The ALP (time 14 day) was 1559.2 IU/L, the ALT (time 14 day) was 40.6 IU/L and the AST (time 14 day) was 67.6 IU/L. It also gave a BUN (time 14 day) of 17.6 mg/dL, a CRE (time 14 day) of 0.2 mg/dL and a Ca (time 14 day) of 10.9 mg/dL. It also gave a Cl (time 14 day) of 107 meq/L, a DBIL (time 14 day) of 0 mg/dL and a GLC (time 14 day) of 184 mg/dL. It also gave an IP (time 14 day) of 7.1 mg/dL, a K (time 14 day) of 4.3 meq/L and an LDH (time 14 day) of 168.6 IU/L. For the same compound, the Na (time 14 day) was 144.4 meq/L, the PL (time 14 day) was 149 mg/dL and the RALB (time 14 day) was 3 g/dL. The TBIL (time 14 day) was 0 mg/dL, the TC (time 14 day) was 75.4 mg/dL and the TG (time 14 day) was 123 mg/dL. It also gave a TP (time 14 day) of 5.7 g/dL, a gamma-GTP (time 14 day) of 2.6 IU/L and an A/G (time 28 day) of 1.1. It also gave an ALP (time 28 day) of 1213.2 IU/L, an ALT (time 28 day) of 40.8 IU/L and an AST (time 28 day) of 66 IU/L. The BUN (time 28 day) was 18.4 mg/dL, the CRE (time 28 day) was 0.2 mg/dL and the Ca (time 28 day) was 10.4 mg/dL. The Cl (time 28 day) was 105.6 meq/L, the DBIL (time 28 day) was 0 mg/dL and the GLC (time 28 day) was 188.6 mg/dL. For the same compound, the IP (time 28 day) was 6.6 mg/dL, the K (time 28 day) was 4.1 meq/L and the LDH (time 28 day) was 123 IU/L. For the same compound, the Na (time 28 day) was 145.8 meq/L, the PL (time 28 day) was 141.8 mg/dL and the RALB (time 28 day) was 3.2 g/dL. It also gave a TBIL (time 28 day) of 0.01 mg/dL, a TC (time 28 day) of 67.4 mg/dL and a TG (time 28 day) of 133.8 mg/dL. For the same compound, the TP (time 28 day) was 6 g/dL and the gamma-GTP (time 28 day) was 3 IU/L.
